In US8399462B2, “JNK modulators” (Roche Palo Alto LLC, priority 2006, dated 2013) one finds melting point data, which are given here for 24 compounds.

What is called melting point is the temperature of the solid-liquid transition.

As for `CS(=O)(=O)CCCOc1cccc2c(-c3ccnc(N[C@H]4CC[C@H](NS(C)(=O)=O)CC4)n3)noc12` [Compound 306, N-(4-{4-[7-(3-methane-sulfonyl-propoxy)-benzo[d]isoxazol-3-yl]-pyrimidin-2-ylamino}-cyclohexyl)-methane-sulfonamide], the melting point lay within 225 to 226 °C.
With `CS(=O)(=O)CCCOc1cccc2c(-c3ccnc(N[C@H]4CC[C@H](C(=O)N5CCC(O)CC5)CC4)n3)noc12` [Compound 307, (4-hydroxy-piperidin-1-yl)-(4-{4-[7-(3-methane-sulfonyl-propoxy)-benzo[d]isoxazol-3-yl]-pyrimidin-2-ylamino}-cyclohexyl)-methanone] the figure was 186 to 187 °C.
In the case of `CS(=O)(=O)CCCOc1cccc2c(-c3ccnc(N[C@H]4CC[C@H](C(=O)N5CC[C@@H](O)C5)CC4)n3)noc12` [Compound 309, (3-hydroxy-pyrrolidin-1-yl)-(4-{4-[7-(3-methane-sulfonyl-propoxy)-benzo[d]isoxazol-3-yl]-pyrimidin-2-ylamino}-cyclohexyl)-methanone], the melting point was in the range of 224 to 225 °C.
With `CN([C@H]1CC[C@H](Nc2nccc(-c3noc4c(OCCCS(C)(=O)=O)cccc34)n2)CC1)S(C)(=O)=O` [Compound 310, N-(4-{4-[7-(3-methane-sulfonyl-propoxy)-benzo[d]isoxazol-3-yl]-pyrimidin-2-ylamino}-cyclohexyl)-N-methyl-methanesulfonamide] the figure was 213.5 to 214.2 °C; with `CS(=O)(=O)N[C@H]1CC[C@H](Nc2nccc(-n3ccc4c(N5CCC(O)C5)cccc43)n2)CC1` (stereo partly drawn) [Compound 312, N-(4-{4-[4-(3-hydroxy-pyrrolidin-1-yl)-indol-1-yl]-pyrimidin-2-yl-amino}-cyclohexyl)-methanesulfonamide], 190.1 to 200.5 °C; with `CS(=O)(=O)N[C@H]1CC[C@H](Nc2nccc(-n3ccc4c(OCC(O)CC(F)(F)F)cccc43)n2)CC1` (stereo partly drawn) [Compound 314, N-(4-{4-[4-(4,4,4-trifluoro-2-hydroxy-butoxy)-indol-1-yl]-pyrimidin-2-ylamino}-cyclohexyl)-methanesulfonamide], 220.7 to 221.5 °C.
With `CS(=O)(=O)CCCOc1cccc2c1ccn2-c1ccnc(N[C@H]2CC[C@H](CN3CC[C@@H](O)C3)CC2)n1` [Compound 317, 1-(4-{4-[4-(3-methanesulfonyl-propoxy)-indol-1-yl]-pyirmidin-2-ylamino}-cyclohexylmethyl)-pyrrolidin-3-ol] the figure was 139.6 to 150.3 °C.
With `CCOC(=O)[C@H]1CC[C@H](Nc2nccc(-n3ccc4c(OCCCS(N)(=O)=O)cccc43)n2)CC1` [Compound 318, 4-{4-[4-(3-sulfamoyl-propoxy)-indol-1-yl]-pyrimidin-2-ylamino}-cyclohexanecarboxylic acid ethyl ester] the figure was 145 to 148 °C; with `CC(=O)N1CCN(c2cccc3c2ccn3-c2ccnc(N[C@H]3CC[C@H](N(CCO)S(C)(=O)=O)CC3)n2)CC1` [Compound 320, N-(4-{4-[4-(4-acetyl-piperazin-1-yl)-indol-1-yl]-pyrimidin-2-ylamino}-cyclohexyl)-N-(2-hydroxy-ethyl)-methanesulfonamide], 244.5 to 248.8 °C.
Consider `CN(C1CCC(Nc2nccc(-n3cc(S(N)(=O)=O)c4ccccc43)n2)CC1)S(C)(=O)=O` (stereo not drawn) [Compound 321, 1-{2-[4-(methanesulfonyl-methyl-amino)-cyclohexylamino]-pyrimdin-4-yl}-1H-indole-3-sulfonic acid amide], for which the melting point is 246.6 to 248.2 °C.
As for `O[C@H]1CC[C@H](Nc2nccc(-c3n[nH]c4c(C(F)(F)F)cccc34)n2)CC1` [Example 3, trans-4-[4-(7-Trifluoromethyl-1H-indazol-3-yl)-pyrimidin-2-yl-amino]-cyclohexanol], the figure is 265.5 to 270 °C.
In the case of `C[C@H]1CC[C@H](Nc2nccc(-n3ncc4c([N+](=O)[O-])cccc43)n2)CC1` [Example 4, trans-(4-Methyl-cyclohexyl)-[4-(4-nitro-indazol-1-yl)-pyrimidin-2-yl]-amine], the melting point is 253.9 to 254.8 °C.
As for `CC(O)CCNC(=O)[C@H]1CC[C@H](Nc2nccc(-n3ncc4ccccc43)n2)CC1` (stereo partly drawn) [Example 5, trans-4-(4-Indazol-1-ylpyrimidin-2-ylamino)-cyclohexane-carboxylic acid (3-hydroxy-butyl)-amide], the figure is 248.5 to 252.5 °C; as for `O=C([C@H]1CC[C@H](Nc2nccc(-n3ncc4ccccc43)n2)CC1)N1CCOCC1` [Example 6, trans-[4-(4-Indazol-1-yl-pyrimidin-2-ylamino)-cyclohexyl]-morpholin-4-yl-methanone], 191 to 192 °C.
The compound `O=C(O)c1cccc2c1ccn2-c1ccnc(N[C@H]2CC[C@H](O)CC2)n1` [Example 7, trans-1-[2-(4-Hydroxy-cyclohexylamino)-pyrimidin-4-yl]-1H-indole-4-carboxylic acid] showed a melting point of 259 to 261 °C.
As for `Nc1cccc2c1ccn2-c1ccnc(N[C@H]2CC[C@H](O)CC2)n1` [Example 8, trans-4-[4-(4-Aminoindol-1-yl)-pyrimidin-2-ylamino]-cyclohexanol], the figure is 218.9 to 220.1 °C; as for `Oc1ccc2c(ccn2-c2ccnc(N[C@H]3CC[C@H](O)CC3)n2)c1` [Example 9, trans-1-[2-(4-Hydroxycyclohexylamino)-pyrimidin-4-yl]-1H-indol-5-ol], 246.5 to 248 °C.
In the case of `OCc1cccc2c1ccn2-c1ccnc(N[C@H]2CC[C@H](O)CC2)n1` [Example 10, trans-4-[4-(4-Hydroxymethylindol-1-yl)-pyrimidin-2-ylamino]-cyclohexanol], the melting point was in the range of 212 to 213.3 °C.
As for `CS(=O)(=O)N[C@H]1CC[C@H](Nc2nccc(-n3ncc4ccccc43)n2)CC1` [Example 12, trans-N-[4-(4-Indazol-1-ylpyrimidin-2-ylamino)-cyclohexyl]-methanesulfonamide], the figure is 269.6 to 270.4 °C.
With `CC1(O)CCC(Nc2nccc(-n3ncc4ccccc43)n2)CC1` (stereo not drawn) [Example 13, 4-(4-Indazol-1-ylpyrimidin-2-ylamino)-1-methylcyclohexanol] the figure was 168.1 to 170.1 °C.
For the compound `O=S(=O)(Cc1ccccc1)c1cccc2c1ccn2-c1ccnc(N[C@H]2CC[C@H](O)CC2)n1` [Example 14, trans-4-[4-(4-Phenylmethanesulfonylindol-1-yl)-pyrimidin-2-yl-amino]-cyclohexanol], the melting point lay within 132.1 to 134.5 °C.
Take `O=c1[nH]n(-c2ccnc(N[C@H]3CC[C@H](O)CC3)n2)c2ccccc12` [Example 16, trans-1-[2-(4-hydroxycyclohexylamino)-pyrimidin-4-yl]-1,2-dihydroindazol-3-one]: the melting point is 263.5 to 264.4 °C.
With `Cn1cc(-c2ccnc(N[C@H]3CC[C@H](O)CC3)n2)c2ccccc21` [Example 17, trans-4-[4-(1-Methyl-1H-indol-3-yl)-pyrimidin-2-ylamino]-cyclohexanol] the figure was 194.5 to 195.3 °C; with `CC(=O)Nc1ccc2cnn(-c3ccnc(N[C@H]4CC[C@H](O)CC4)n3)c2c1` [Example 19, trans-N-{1-[2-(4-Hydroxycyclohexylamino)-pyrimidin-4-yl]-1H-indazol-6-yl}-acetamide], 288 to 289.5 °C.
